Where “and” joins values, the source holds several entries; their conditions need not be identical. Equal values may be shown once.
What was measured:
[1] = biological target: T1, phosphorylated VEGF-R2Δ50 (FLVK-P) (Homo sapiens, UniProt P35968, DEL940-989/E990V); assay: VEGF-R2 coupled spectrophotometric (FLVK-P) assay; type: biochemical; settings: Table 2; spectrophotometric assay
T1 construct: VEGF-R2Δ50 contains residues 806-939 and 990-1171; made in house; host or cells: baculovirus/insect cells
T1 sequence (P35968 with tags, fused parts or gaps DEL940-989/E990V limits assumed): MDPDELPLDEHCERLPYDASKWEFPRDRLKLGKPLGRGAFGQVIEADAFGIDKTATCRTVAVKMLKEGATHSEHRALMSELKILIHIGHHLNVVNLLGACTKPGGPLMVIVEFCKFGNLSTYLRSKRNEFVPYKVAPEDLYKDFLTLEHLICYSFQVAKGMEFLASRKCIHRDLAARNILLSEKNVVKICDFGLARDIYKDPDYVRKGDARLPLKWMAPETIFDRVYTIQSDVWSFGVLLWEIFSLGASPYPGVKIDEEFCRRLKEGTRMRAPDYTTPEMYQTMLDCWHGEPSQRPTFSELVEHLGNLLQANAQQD
Summary of the method: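 Baculovirus-expressed human VEGF-R2Δ50 (residues 806-939/990-1171, E990V) was autophosphorylated with 3 mM ATP, 40 mM MgCl2 for 2 h at 4° C. ADP formation was coupled via PK/LDH to NADH oxidation, read at 340 nm, with 5.1 mM poly(E4Y1), 1 mM ATP, 25 mM MgCl2, Hepes pH 7.5. Ki came from activity across compound concentrations.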

CDK2/Cyclin A complex = CDK2/Cyclin A complex (Homo sapiens, UniProt P24941); assay: CDK2/Cyclin A assay; type: biochemical; settings: Table 2
Summary of the method: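 Radiometric assay: 150 nM CDK2/cyclin A (insect-cell CDK2, truncated cyclin A) phosphorylates His-tagged Rb fragment (residues 386-928) with 25 μM ATP plus [32P]ATP, pH 7.4 HEPES, 2% DMSO, 30 °C for 20 min. Filter-captured product counted by phosphorimager; apparent Ki from competitive or tight-binding inhibition fits.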

FGF-R1 = biological target: T2, FGF-R1 (Homo sapiens, UniProt P11362, C488A/C584S/L457V); assay: FGF-R spectrophotometric assay; type: biochemical; settings: Table 2; for FGF-R % inhibition @ 5: at 5 (head μM)
T2 construct: starting from the endogenous methionine residue 456 to glutamate 766; made in house; host or cells: baculovirus vector expression system
T2 sequence (P11362 456-766 L457V/C488A/C584S): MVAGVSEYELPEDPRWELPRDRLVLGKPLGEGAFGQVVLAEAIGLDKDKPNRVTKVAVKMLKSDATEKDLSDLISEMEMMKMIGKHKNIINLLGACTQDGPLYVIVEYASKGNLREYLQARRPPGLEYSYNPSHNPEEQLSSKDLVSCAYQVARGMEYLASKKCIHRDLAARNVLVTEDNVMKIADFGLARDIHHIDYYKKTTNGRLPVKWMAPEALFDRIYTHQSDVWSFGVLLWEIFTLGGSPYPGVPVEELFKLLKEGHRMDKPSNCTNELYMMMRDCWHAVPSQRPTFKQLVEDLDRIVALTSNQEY
Summary of the method: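 Kinase domain (Met456–Glu766, baculovirus-expressed) used at 50 nM in a spectrophotometric assay run as for VEGF-R2. Substrates were 2 mM ATP and 15 mM poly(E4Y1).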

FAKcd409 = biological target: T3, FAKcd409 (Homo sapiens, UniProt Q05397, P410T); assay: FAK HTS assay; type: biochemical; settings: 10 uM compound, HTS Delphia assay
T3 construct: comprises residues methionine 409 to glutamate 689; made in house; host or cells: baculovirus vector expression system
T3 sequence (Q05397 409-689 P410T): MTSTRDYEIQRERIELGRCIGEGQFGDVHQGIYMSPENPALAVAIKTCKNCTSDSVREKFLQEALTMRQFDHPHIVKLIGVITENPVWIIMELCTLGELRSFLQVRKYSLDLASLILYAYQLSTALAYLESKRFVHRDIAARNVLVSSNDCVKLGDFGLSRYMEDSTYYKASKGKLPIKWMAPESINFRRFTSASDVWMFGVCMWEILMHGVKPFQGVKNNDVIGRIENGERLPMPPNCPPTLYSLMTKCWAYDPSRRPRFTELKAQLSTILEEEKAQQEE

CDK4/Cyclin D3 complex = biological target: T4, CDK4/Cyclin D3 complex (Homo sapiens, UniProt P11802); assay: CDK4/Cyclin D assay; type: biochemical; settings: Table 2
T4 construct: made in house; host or cells: insect cells co-infected with baculovirus vectors
T4 sequence (P11802 whole entry): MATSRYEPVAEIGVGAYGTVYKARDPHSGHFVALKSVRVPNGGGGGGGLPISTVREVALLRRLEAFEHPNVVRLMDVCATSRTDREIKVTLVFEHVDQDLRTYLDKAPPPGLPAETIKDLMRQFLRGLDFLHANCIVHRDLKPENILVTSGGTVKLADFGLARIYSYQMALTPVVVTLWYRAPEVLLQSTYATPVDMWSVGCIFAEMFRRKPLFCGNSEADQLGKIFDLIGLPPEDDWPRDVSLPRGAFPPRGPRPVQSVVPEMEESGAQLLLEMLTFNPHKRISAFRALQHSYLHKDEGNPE
T4 sequence (P30281 whole entry partner): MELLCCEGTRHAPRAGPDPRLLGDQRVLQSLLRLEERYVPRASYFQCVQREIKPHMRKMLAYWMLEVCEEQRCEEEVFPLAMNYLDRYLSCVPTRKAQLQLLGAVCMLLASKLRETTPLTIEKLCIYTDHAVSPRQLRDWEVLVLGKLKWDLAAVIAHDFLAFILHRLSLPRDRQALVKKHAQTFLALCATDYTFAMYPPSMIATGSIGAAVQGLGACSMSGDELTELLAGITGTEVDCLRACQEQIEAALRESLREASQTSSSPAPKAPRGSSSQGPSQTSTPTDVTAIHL
Summary of the method: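 Insect-cell-expressed CDK4/cyclin D3 (50 nM) phosphorylating His-tagged Rb fragment (residues 386-928) with 25 μM [^32P]ATP in HEPES pH 7.4, MgCl2, 2% DMSO; 20 min at 30 °C, EDTA stop. Filter-captured 32P by phosphorimager; apparent Ki from competitive or tight-binding inhibition fits.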

[2] = biological target: T5, phosphorylated VEGF-R2Δ50 (Homo sapiens, UniProt P35968, DEL940-989/E990V); assay: VEGF-R2 ELISA assay; type: biochemical; settings: Table 2; * determined with ELISA assay; read-out: FLVK-P Ki
T5 construct: VEGF-R2Δ50 contains residues 806-939 and 990-1171; made in house; host or cells: baculovirus/insect cells
T5 sequence (P35968 with tags, fused parts or gaps DEL940-989/E990V limits assumed): as the sequence (P35968 with tags, fused parts or gaps DEL940-989/E990V limits assumed) above
Summary of the method: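 Pre-autophosphorylated human VEGF-R2Δ50 (residues 806-939/990-1171, E990V; baculovirus) at 0.8 nM was run with 2 μM biotin-gastrin(1-17), 20 μM ATP, 26 mM MgCl2, 2 mM MnCl2, pH 7.5 Hepes. Phosphopeptide was captured on streptavidin and detected by anti-pTyr-HRP/ABTS at 405 nm; Ki came from activity at varying compound concentrations.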

CHK1 = biological target: T6, CHK1 (Homo sapiens, UniProt O14757); assay: CHK1 high-throughput screening; type: biochemical
T6 sequence (O14757 1-476): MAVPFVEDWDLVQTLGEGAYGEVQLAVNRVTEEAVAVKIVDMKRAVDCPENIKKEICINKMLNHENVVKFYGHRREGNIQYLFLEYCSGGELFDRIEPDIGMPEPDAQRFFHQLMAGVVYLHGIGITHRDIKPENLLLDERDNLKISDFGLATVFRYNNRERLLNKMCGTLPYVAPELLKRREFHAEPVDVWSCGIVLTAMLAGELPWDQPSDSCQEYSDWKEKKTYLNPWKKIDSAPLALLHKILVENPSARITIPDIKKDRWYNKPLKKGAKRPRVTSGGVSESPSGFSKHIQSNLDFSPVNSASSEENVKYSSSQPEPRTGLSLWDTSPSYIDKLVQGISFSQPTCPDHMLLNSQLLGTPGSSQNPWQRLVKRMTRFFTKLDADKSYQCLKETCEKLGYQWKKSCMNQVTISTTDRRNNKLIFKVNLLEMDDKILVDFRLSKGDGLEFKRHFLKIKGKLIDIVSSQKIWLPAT

LCK tyrosine kinase = biological target: T7, LCK tyrosine kinase (Homo sapiens, UniProt P06239, C224D/P223M); assay: LCK spectrophotometric assay; type: biochemical; settings: Table 2; at 5 (head μM)
T7 construct: starting from amino acid residue 223 to the end of the protein at residue 509; made in house; host or cells: insect cells
T7 sequence (P06239 223-509 P223M/C224D): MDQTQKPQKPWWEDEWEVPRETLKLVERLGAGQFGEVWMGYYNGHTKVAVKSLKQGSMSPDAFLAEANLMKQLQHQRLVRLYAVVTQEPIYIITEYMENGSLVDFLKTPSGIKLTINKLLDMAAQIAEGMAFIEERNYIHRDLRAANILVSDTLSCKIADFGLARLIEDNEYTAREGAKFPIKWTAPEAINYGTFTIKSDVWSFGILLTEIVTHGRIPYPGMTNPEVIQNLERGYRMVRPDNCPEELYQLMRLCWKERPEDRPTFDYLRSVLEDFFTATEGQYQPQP
Description: LCK Construct for Assay: The LCK tyrosine kinase was expressed in insect cells as an N-terminal deletion starting from amino acid residue 223 to the end of the protein at residue 509, with the following two amino acid substitutions at the N-terminus: […] and C224D.
The spectrophotometric assay was carried out as described above for VEGF-R2, except for the following changes in concentration: LCK=60 nM, MgCl2=0 mM, poly(E4Y1)=20 mM.

In the case of `COc1cc(Nc2nc(N)c(-c3nc(-c4ccc(O)cc4)cs3)s2)cc(OC)c1OC` [A(10), 4-[4′-Amino-2′-(3,4,5-trimethoxy-phenylamino)-[2,5′]bithiazolyl-4-yl]-phenol], the Ki [1] is reported as 0.028 µM, the Ki (CDK2/Cyclin A complex) is reported as 13.4 µM and the “FGF-R % inhibition @ 5” value (FGF-R1) is reported as 45% @. For the same compound, the “% inhibition of FAK” value (FAKcd409; 10 µM) was −2% and −5% and −4%, the melting point was 129 to 133 °C (dec.) and the Ki (CDK4/Cyclin D3 complex) was 9.1 µM.
For `COc1cc(Nc2nc(N)c(-c3nc(-c4ccc(O)c(O)c4)cs3)s2)cc(OC)c1OC` [A(12), 4-[4′-Amino-2′-(3,4,5-trimethoxy-phenylamino)-[2,5′]bithiazolyl-4-yl]-benzene-1,2-diol], the Ki [1] was 0.034 µM, the Ki (CDK2/Cyclin A complex) was 6.7 µM and the Ki (FGF-R1) was 190 µM. The “% inhibition of FAK” value (FAKcd409) was −16%, the melting point was 132 to 137 °C (dec.) and the Ki (CDK4/Cyclin D3 complex) was 2.7 µM.
For `Cc1nc(-c2sc(Nc3ccc(S(N)(=O)=O)cc3)nc2N)sc1Cc1ccc(F)cc1` [A(15), 4-[4′-Amino-5-(4-fluoro-benzyl)-4-methyl-[2,5′]bithiazolyl-2′-ylamino]-benzenesulfonamide], the Ki (CDK2/Cyclin A complex) was 2.7 µM, the Ki [2] was 25 µM and the “% inhibition of FAK” value (FAKcd409; 10 µM) was −9% and −7% and 0%. For the same compound, the “% inhibition @ 20 μM” value (CHK1; Table 4, repeated entries per example, 20 µM) was −4.1% and −1.2%, the melting point was 130 to 135 °C (dec.) and the Ki (CDK4/Cyclin D3 complex) was 7.8 µM.
For `COc1cc(Nc2nc(N)c(-c3nc(-c4cc(O)cc(O)c4)cs3)s2)cc(OC)c1OC` [A(18), 5-[4′-Amino-2′-(3,4,5-trimethoxy-phenylamino)-[2,5′]bithiazolyl-4-yl]-benzene-1,3-diol], the “FGF-R % inhibition @ 5” value (FGF-R1) was 38% @, the inhibition at 10 µM (FAKcd409) was 25% and the “% inhibition of FAK” value (FAKcd409; 10 µM) was 32% and 29%. The inhibition at 20 µM (CHK1; read-out: % inhibition @ 20 μM, Table 4, repeated entries per example) was 60.8% and the melting point was 198 to 202 °C.
In the case of `COc1cc(Nc2nc(N)c(-c3nc(-c4ccccc4O)cs3)s2)cc(OC)c1OC` [A(23), 2-[4′-Amino-2′-(3,4,5-trimethoxy-phenylamino)-[2,5′]bithiazolyl-4-yl]-phenol], the Ki [1] is reported as 0.039 µM, the “LCK % inhibition @ 5” value (LCK tyrosine kinase) is reported as 34% @ and the “FGF-R % inhibition @ 5” value (FGF-R1) is reported as 47% @. For the same compound, the “% inhibition of FAK” value (FAKcd409; 10 µM) was −5% and −6% and 4% and the melting point was 186 to 190 °C (dec.).
